Measurements: publication PMC7148434, “ACE-domain selectivity extends beyond direct interacting residues at the active site” (Biochemical Journal, 2020)
Square brackets hold non-standard residues; d marks the D form. Ends that are not written are not given here. * marks the point of attachment. Dnp = O=[N+]([O-])c1ccc(*)c([N+](=O)[O-])c1; 2Abz = Nc1ccccc1C(=O)O

Key:
[1] = target: S′-nACE (S260T, E262S, D354E, S357V, T358V and E431D) (Homo sapiens, UniProt P12821, D383E/E291S/E460D/S289T/S386V/T387V); test: Inhibitor binding kinetics, modified Abz-FRK(Dnp)P-OH assay, S′ mutant; type: biochemical; details: for decrease in binding affinity compared with nACE: S′-nACE relative to nACE; for Selectivity (Ki cACE/Ki nACE or mutant): Ki cACE / Ki S′-nACE; for Ki: S′-nACE, Morrison plot, 50 mM HEPES pH 6.8, 200 mM NaCl, 10 μM ZnCl2, mean ± SD
Chain of S′-nACE (S260T, E262S, D354E, S357V, T358V and E431D) (P12821 40-624 S289T/E291S/D383E/S386V/T387V/E460D): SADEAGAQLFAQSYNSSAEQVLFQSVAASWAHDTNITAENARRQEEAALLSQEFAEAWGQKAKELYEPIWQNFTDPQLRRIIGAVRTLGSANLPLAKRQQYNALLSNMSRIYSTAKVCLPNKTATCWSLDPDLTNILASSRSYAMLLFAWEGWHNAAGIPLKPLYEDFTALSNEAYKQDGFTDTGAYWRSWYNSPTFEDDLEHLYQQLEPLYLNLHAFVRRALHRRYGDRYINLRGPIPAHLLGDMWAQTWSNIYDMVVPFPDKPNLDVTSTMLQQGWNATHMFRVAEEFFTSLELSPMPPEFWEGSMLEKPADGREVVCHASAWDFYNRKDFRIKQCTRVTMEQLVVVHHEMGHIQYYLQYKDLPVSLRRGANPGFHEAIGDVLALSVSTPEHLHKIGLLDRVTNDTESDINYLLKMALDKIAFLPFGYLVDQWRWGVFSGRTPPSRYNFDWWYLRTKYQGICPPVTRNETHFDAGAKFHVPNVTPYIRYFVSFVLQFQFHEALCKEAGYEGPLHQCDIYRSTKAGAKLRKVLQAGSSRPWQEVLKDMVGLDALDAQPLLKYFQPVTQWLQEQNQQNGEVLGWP
Protocol: (§1) Serial dilutions of an appropriate range were prepared for each inhibitor in the aforementioned assay buffer. An appropriate concentration of enzyme was similarly prepared and incubated with an equal volume of inhibitor for 15 min at 22°C after which 20 μl volumes of the reactions were aliquoted to a 96-well plate. […] Control (zero inhibitor) reactions containing the appropriate concentration of methanol or DMSO (in the case of ketoACE-13 or omapatrilat, respectively) were included to correct for any possible vehicle-induced effects on the reaction rate.

[2] = target: S2_S′-nACE (S260T, E262S, D354E, S357V, T358V, Y369F, R381E and E431D) (Homo sapiens, UniProt P12821, D383E/E291S/E460D/R410E/S289T/S386V/T387V/Y398F); test: Inhibitor binding kinetics, modified Abz-FRK(Dnp)P-OH assay, combined S2_S′ mutant; type: biochemical; set-up: The truncated (single domain) wild-type N-domain (nACE), N-domain mutant constructs; made in house; host or cells: CHO-K1; details: for binding affinity lower than that of cACE: S2_S′-nACE relative to cACE; for decrease in binding affinity compared with nACE: S2_S′-nACE relative to nACE; for Selectivity (Ki cACE/Ki nACE or mutant): Ki cACE / Ki S2_S′-nACE; for Ki: S2_S′-nACE, Morrison plot, 50 mM HEPES pH 6.8, 200 mM NaCl, 10 μM ZnCl2, mean ± SD
Chain of S2_S′-nACE (S260T, E262S, D354E, S357V, T358V, Y369F, R381E and E431D) (P12821 40-624 S289T/E291S/D383E/S386V/T387V/Y398F/R410E/E460D): as the sequence (P12821 40-624 S289T/E291S/D383E/S386V/T387V/E460D) above, with Y359F, R371E counted along it
Protocol: as §1

[3] = target: S2-nACE (Y369F and R381E) (Homo sapiens, UniProt P12821, R410E/Y398F); test: Inhibitor binding kinetics, modified Abz-FRK(Dnp)P-OH assay, S2 mutant; type: biochemical; set-up: The truncated (single domain) wild-type N-domain (nACE), N-domain mutant constructs; made in house; host or cells: CHO-K1; details: for decrease in binding affinity compared with nACE: S2-nACE relative to nACE; for Selectivity (Ki cACE/Ki nACE or mutant): Ki cACE / Ki S2-nACE; for Ki: S2-nACE, Morrison plot, 50 mM HEPES pH 6.8, 200 mM NaCl, 10 μM ZnCl2, mean ± SD
Chain of S2-nACE (Y369F and R381E) (P12821 40-624 Y398F/R410E): as the sequence (P12821 40-624 S289T/E291S/D383E/S386V/T387V/E460D) above, with T250S, S252E, E344D, V347S, V348T, Y359F, R371E, D421E counted along it
Protocol: as §1

cACE = cACE (Homo sapiens, UniProt P12821); test: Inhibitor binding kinetics, modified Abz-FRK(Dnp)P-OH assay, wild-type C-domain; type: biochemical; details: for Ki: cACE, Morrison plot, 50 mM HEPES pH 6.8, 200 mM NaCl, 10 μM ZnCl2, mean ± SD
Chain of cACE (P12821 643-1222 limits assumed): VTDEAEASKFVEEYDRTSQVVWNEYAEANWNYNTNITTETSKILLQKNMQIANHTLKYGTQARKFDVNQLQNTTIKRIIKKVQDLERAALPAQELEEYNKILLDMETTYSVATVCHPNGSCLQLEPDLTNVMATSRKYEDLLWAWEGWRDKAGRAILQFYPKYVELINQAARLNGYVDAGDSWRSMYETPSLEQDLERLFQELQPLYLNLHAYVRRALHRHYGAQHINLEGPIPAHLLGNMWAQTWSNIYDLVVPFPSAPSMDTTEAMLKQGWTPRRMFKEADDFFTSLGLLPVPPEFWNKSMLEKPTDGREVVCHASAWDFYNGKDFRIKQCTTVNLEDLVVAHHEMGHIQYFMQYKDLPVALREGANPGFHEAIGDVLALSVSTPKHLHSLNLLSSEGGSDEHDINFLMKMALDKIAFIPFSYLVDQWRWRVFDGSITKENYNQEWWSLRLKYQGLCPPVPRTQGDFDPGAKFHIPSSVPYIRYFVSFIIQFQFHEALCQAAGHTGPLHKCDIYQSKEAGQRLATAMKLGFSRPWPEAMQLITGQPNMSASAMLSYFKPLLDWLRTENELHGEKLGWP
Protocol: as §1

nACE [4] = target: nACE (Homo sapiens, UniProt P12821); test: Inhibitor binding kinetics, modified Abz-FRK(Dnp)P-OH assay, wild-type N-domain; type: biochemical; set-up: The truncated (single domain) wild-type N-domain (nACE); made in house; host or cells: CHO-K1; details: nACE; Morrison plot; 50 mM HEPES pH 6.8, 200 mM NaCl, 10 μM ZnCl2; mean ± SD
Chain of nACE (Homo sapiens, UniProt P12821) (P12821 40-624 limits assumed): as the sequence (P12821 40-624 S289T/E291S/D383E/S386V/T387V/E460D) above, with T250S, S252E, E344D, V347S, V348T, D421E counted along it
Protocol: as §1

nACE [5] = test: as above; type: biochemical; details: Ki cACE / Ki nACE (N-selectivity)
Protocol: as §1

[6] = Integrity of omapatrilat at ambient temperature monitored by HPLC (dimer formation); type: physicochemical
Protocol: The fluorogenic substrate Abz-FRK(Dnp)P-OH was a kind gift from Prof A.K. Carmona, Universidade Federal de São Paulo. The peptide was dissolved in 100% DMSO and the concentration determined by measuring the absorbance at 365 nm and extinction coefficient of 17 300 M^−1 cm^−1. Subsequent dilutions from the 1 mM stock of were made in assay buffer (50 mM HEPES, pH 6.8, 10 μM ZnCl2, 200 mM NaCl). […] KetoACE-13 was dissolved in 100% methanol to a stock concentration of 50 mM, followed by dilution in deionized distilled water to 10 mM. Since the dimerization of omapatrilat has been previously described, fresh 10 mM stocks of inhibitor were prepared in DMSO directly prior to kinetic analysis. The integrity of omapatrilat at ambient temperature was monitored at 50 µM by HPLC (Agilent 1260 Infinity HPLC System with a Poroshell 120 EC-C 18 column) over the timeframe of each assay, as previously described. A 20 µl injection volume was used with a 0.5 ml/min flow rate with A: 1% ACN, 0.1% TFA; B: 95% ACN, 0.1% TFA; and 0–100% B over 10 min; 214 nm.
Figure 2 . Effect of mutation on N-selective inhibition, integrity of omapatrilat at ambient temperature as monitored by HPLC and SDS–PAGE gel illustrating the decreased molecular mass of the active site mutant N389-S2_S′-nACE. (A) Inhibitor binding affinities (Ki values) for wild-type cACE or nACE mutants are shown on a log scale relative to nACE with error bars representing mean ± SD of at least two independent experiments. (B) Omapatrilat (50 μM in assay buffer) was analyzed using a Poroshell 120 EC-C 18 column on the Agilent 1260 infinity HPLC system. Twenty microliters of the sample was injected onto the column immediately after preparation or following incubation at ambient temperature for 1, 2 or 3 h. Conditions: A: 1% ACN, 0.1% TFA; B: 95% ACN, 0.1% TFA; 0–100% B over 10 min; 0.5 ml/min, 214 nm. […] (C) SDS–PAGE of purified nACE proteins (1) fully glycosylated S2_S′-nACE, (2) minimally glycosylated N389-nACE and (3) minimally glycosylated N389-S2_S′-nACE.

[7] = target: S2_S′-nACE (N-domain mutant S260T, E262S, D354E, S357V, T358V, Y369F, R381E and E431D)
[8] = target: Wild-type C-domain of angiotensin-converting enzyme (cACE)
[9] = target: Wild-type N-domain of angiotensin-converting enzyme (nACE)
[10] = target: S′-nACE (N-domain mutant S260T, E262S, D354E, S357V, T358V and E431D)
[11] = target: S2-nACE (N-domain mutant Y369F and R381E)

Row | Molecule | decrease in binding affinity compared with nACE [1] [fold] | binding affinity lower than that of cACE [2] [fold] | decrease in binding affinity compared with nACE [2] [fold] | decrease in binding affinity compared with nACE [3] [fold] | Selectivity (Ki cACE/Ki nACE or mutant) [1] | Ki [1] [nM] | Ki (nACE [4]) [nM] | Selectivity (Ki cACE/Ki nACE or mutant) [2] | Ki [2] [nM] | Selectivity (Ki cACE/Ki nACE or mutant) [3] | Ki [3] [nM] | Selectivity (Ki cACE/Ki nACE or mutant) (cACE) | Ki (cACE) [nM] | Selectivity (Ki cACE/Ki nACE or mutant) (nACE [5]) | also measured
1 | C[C@H](N[C@@H](CCc1ccccc1)C(=O)O)C(=O)N1CCC[C@H]1C(=O)O [Enalaprilat, enalaprilat, reference compound] | 2.5 | 19 | 4 | 2 | – | – | – | – | – | – | – | – | – | – | greater affinity to cACE than nACE (cACE; cACE relative to nACE): 5 fold
2 | CC(C)(C)OC(=O)NC(CC(=O)O)C(=O)NC(Cc1ccccc1)C(=O)CCC(=O)N1CCCC1C(=O)O (stereo not drawn) [KetoACE13] | 3 | 6 | – | – | 3 | 2990 ± 1000 | 1000 ± 270 | 0.2 | 47800 | 0.5 | 17800 | 1 | 8250 ± 430 | 8 | –
3 | O=C(N[C@H]1CCS[C@H]2CCC[C@@H](C(=O)O)N2C1=O)[C@@H](S)Cc1ccccc1 [Omapatrilat, omapatrilat, reference compound] | – | – | – | – | 1 | 0.49 ± 0.04 | 0.37 ± 0.05 | 2 | 0.29 ± 0.01 | 2 | 0.43 ± 0.13 | 1 | 0.7 ± 0.09 | 2 | fraction of dimer detected ([6]; 50 μM in assay buffer (50 mM HEPES pH 6.8), immediately after solubilization): 2.56%; increase in fraction of dimer ([6]; 50 μM in assay buffer, after 1 h at ambient temperature): 0.86%; fraction of dimer detected ([6]; 50 μM in assay buffer, after 3 h of incubation at ambient temperature): 11%
4 | CC(NC(C(=O)O)C1CCCN1C(=O)C(N)CC(=O)O)C(=O)N1CCCC1C(=O)O (stereo not drawn) [SG6] | 11 | – | 784 | 474 | 70 | 1.09 ± 0.1 | 0.093 ± 0.02 | 1.1 | 72.9 ± 7.5 | 1.7 | 44 ± 2.8 | 1 | 76.8 ± 4.3 | 825 | –
5 | [2Abz]FRK(Dnp)P-OH (N-terminus assumed; SMILES N=C(N)NCCC[C@H](NC(=O)[C@H](Cc1ccccc1)NC(=O)c1ccccc1N)C(=O)N[C@@H](CCCCNc1ccc([N+](=O)[O-])cc1[N+](=O)[O-])C(=O)N1CCC[C@H]1C(=O)O) [Abz-FRK(Dnp)P-OH] | – | – | – | – | – | – | – | – | – | – | – | – | – | – | Km of Abz-FRK(Dnp)P-OH hydrolysis (Michaelis-Menten model, initial velocities; 50 mM HEPES pH 6.8, 200 mM NaCl, 10 µM ZnCl2, ambient temperature) [7]: 12.4 μM; Km of Abz-FRK(Dnp)P-OH hydrolysis (Michaelis-Menten model, initial velocities; 50 mM HEPES pH 6.8, 200 mM NaCl, 10 µM ZnCl2, ambient temperature) [8]: 6.3 μM; Km of Abz-FRK(Dnp)P-OH hydrolysis (Michaelis-Menten model, initial velocities; 50 mM HEPES pH 6.8, 200 mM NaCl, 10 µM ZnCl2, ambient temperature) [9]: 7.54 μM; Km of Abz-FRK(Dnp)P-OH hydrolysis (Michaelis-Menten model, initial velocities; 50 mM HEPES pH 6.8, 200 mM NaCl, 10 µM ZnCl2, ambient temperature) [10]: 4.51 μM; Km of Abz-FRK(Dnp)P-OH hydrolysis (Michaelis-Menten model, initial velocities; 50 mM HEPES pH 6.8, 200 mM NaCl, 10 µM ZnCl2, ambient temperature) [11]: 11.9 μM
